`CCCCCC(C)C(C)c1cc(O)c2c(c1)OC(C)(C)C1=C2CN(CC(=O)Nc2ccccc2)CC1` (stereo unspecified) came in with a melting point of 125 to 127 °C.
`OC1CCCNC1CN1CCCC1` (stereo unspecified): the melting point was 45 to 50 °C.
The same measure for `CC(=O)c1cc(F)ccc1Oc1nc2ccc(N=[N+]=[N-])cc2cc1Cc1ccccc1`: 127 to 130 °C.
For `NC(CC(=O)NC1CC1)C1CC1` (stereo unspecified), the melting point fell in the range of 116 to 118 °C.
The same measure for `C=CCOC(=O)c1cc(OCC=C)c(OCC=C)c(S(C)(=O)=O)c1`: 78 to 80 °C; for `N#CCCOc1cccc(OCCC#N)c1`: 109 to 110 °C.
The same measure for `CC(=O)NC[C@H]1CN(c2ccc(C(=O)c3cnc4ccc(Br)cn34)cc2)C(=O)O1`: 230 to 232 °C; for `CN(C)Cc1ccc(-c2cc3c(Nc4ccc(OCc5ccccc5)cc4)ncnc3[nH]2)cc1`: 272 to 274 °C.
As for `Cc1cc(F)ccc1Nc1c(C(=O)C(C)C)cnc2c(CO)cccc12`, the melting point is 139 to 140 °C.
As to `OC(CN1CCC(O)(Cc2ccccc2)CC1)c1ccc(F)cc1` (stereo unspecified), the melting point is 144 to 146 °C.
The same measure for `CC(C)(COC(=O)c1ccccc1)c1cc(OS(C)(=O)=O)ccc1OC(=O)c1ccccc1`: 100 to 101 °C; for `C=CC(=O)NCCCCCCCCOc1ccccc1`: 45 to 47 °C.
Turning to `COc1ccc(C#CCCCCOc2ccc(C(=O)c3cccc(C(=O)O)c3)cc2CCC(=O)O)cc1`, the melting point lay within 144 to 146 °C.
The result for `CC(=O)OC1=CC=C2CC3N4CCC25C1OC1C(=O)CCC3(OC4)C15` (stereo unspecified) reads 179 to 182 °C; that for `N#Cc1cc(=O)c2ccc(CBr)cc2o1`, 162 to 166 °C.
The same measure for `CON(C)Cc1nc2c(N)nc(C)c(C)c2n1CC(C)C`: 132 to 134 °C.
The result for `Cn1c(Nc2cccc(C(F)(F)F)c2)nc2c(-c3cccc(C(=O)NCCO)c3)cccc21` reads 235 to 236 °C; that for `CC(C)(C=CBr)C(=O)Nc1ccc(Cl)cc1`, 134 to 135 °C.
`COc1ccccc1NC(=O)Nc1nc(N(CCC(=O)O)Cc2cccc(C)c2)nc(N2CCc3ccccc32)n1` displayed a melting point of 201 °C.
`O=C(O)CN1C(=O)C(=CC=Cc2ccccc2Br)SC1=S` showed a melting point of 241 to 244 °C.
The same measure for `COc1ccc(Oc2cc3c(cc2Cl)C=C(C(=O)O)C(C(F)(F)F)O3)cc1` (stereo unspecified): 213 to 214 °C; for `CCCCCCCCCCc1nc(N(C)C)nc(OC)c1O`: 59 to 60 °C.
The same measure for `CC(C)(C)C(=O)OCOc1ccc(C=O)cc1OC(=O)C(C)(C)C`: 58 to 60 °C.
The result for `COC(=O)NN=C(C)c1nc(-c2ccccc2)[nH]c1C` reads 201 to 202 °C.
`O=C(CSc1ccc(O)cc1)NC(=O)c1ccccc1`: the melting point was 149 to 151 °C.
`CCn1cc(C(=O)O)c(=O)c2cc(Cl)c(N3CCN(c4ccccc4)CC3)cc21` yielded a melting point of 234 to 235 °C.
Take `O=C(O)c1cc(=O)c2cc(F)ccc2[nH]1`: the melting point lay within 206 to 210 °C.
In turn, `CCC1N=C(c2ccccc2Cl)c2cc(CC(=O)OC)sc2-n2c(C)nnc21` (stereo unspecified) displayed a melting point of 134 to 137 °C.
The same measure for `O=C1CC(=O)C2C3C=CC(C3)C12` (stereo unspecified): 183 °C; for `C=COCCN1C(=O)CN(c2ccccc2)C1=O`: 119 to 120 °C.
`ClCc1coc(-c2ccoc2)n1` returned a melting point of 70 to 71 °C.
With `Cc1ccc(C)c(OCCCC(C)(C)C(=O)Nc2cccc(C3=NC(C)(C)CO3)c2C)c1`, the melting point was in the range of 51 to 52 °C.
For the compound `CCOC(=O)c1sc2nc(C)c(CC)c(=O)n2c1C`, the melting point lay in the range of 122 to 124 °C.
The result for `CC(C)(C)OC(=O)NCc1ccc(-n2c(-c3cccnc3N)nc3cc(Br)cnc32)cc1` reads 129 to 131 °C; that for `CCCCOc1c(-c2cc(C=CC(=O)O)ccc2OC)cc(C(C)(C)C)cc1C(C)(C)C`, 204 to 206 °C.
In the case of `CN1CCN(C(=O)CN2C(=O)C(NC(=O)Nc3ccc(Cl)cc3)N=C(c3ccccc3)c3ccccc32)CC1` (stereo unspecified), the melting point fell in the range of 278 to 280 °C.
The same measure for `CC(Oc1cc2sc(NC(=O)NCCN3CCOCC3)nc2cc1Cl)c1c(Cl)ccc(F)c1Cl` (stereo unspecified): 196 to 198 °C; for `C=CC(=O)N1CCc2cc(OC)c(OC)cc2C12CCC(C(=O)OCC)(C(=O)OCC)CC2C1c2cc(OC)c(OC)cc2CCN1CC` (stereo unspecified): 150 to 151 °C.
The same measure for `Cc1ccc2c(c1)C(O)=C(C(=O)Nc1cncc(Cl)n1)N(C)S2(=O)=O`: 296 to 298 °C.
The same measure for `O=C(O)Cc1nn(C/C=C/c2cccc(C(F)(F)F)c2F)c(=O)c2ccccc12`: 170 to 172 °C.
`O=C(O)C1C2C=CC(C2)C1NS(=O)(=O)c1ccc(OCc2ccccc2)cc1` (stereo unspecified) yielded a melting point of 201 to 203 °C.
The result for `COC(=O)c1cc2ccc(Cl)cc2n1CC#N` reads 177 to 178 °C.
The compound `CCN(CC)CCCNc1ccc(-c2ccnc(Nc3cc(OC)c(OC)c(OC)c3)n2)cn1` registered a melting point of 67 °C.
With `CCOC(=O)c1nc(C=Cc2cccc(Cl)c2)oc1C`, the melting point was in the range of 116 to 117 °C.
As for `C#CCn1cc(Cc2ccc(C(=O)OC)cc2OC)c2cc(NC(=O)CC3CCCC3)ccc21`, the melting point lay in the range of 160 to 161 °C.
In the case of `COC(=S)Nc1ccc(OCc2nc3ccccc3s2)cc1`, the melting point fell in the range of 160 to 162 °C.
As for `COc1ccnc(CCc2nc3cc(-c4ccc(S(=O)(=O)NCCO)cc4)cnc3[nH]2)c1`, the melting point is 218 to 220 °C.
The same measure for `COC(=O)C(CNC(C)=O)C1CCC(C(C)(C)C)CC1` (stereo unspecified): 73 to 75 °C; for `O=C1CCC(N2Cc3c(OCc4ccc(CN5CCOCC5)c(Cl)c4)cccc3C2=O)C(=O)N1` (stereo unspecified): 240 to 242 °C; for `Cc1cc(-c2ccc(C(F)(F)F)cc2)cc(-c2ccnc(-c3ccc(S(N)(=O)=O)s3)n2)n1`: more than 250 °C.
The result for `COc1ccc(-c2[nH]c(=O)c3cc(OC)ccc3c2N2CCOCC2)cc1` reads 139 °C; that for `O=c1[nH]c2ccccc2n1CCCN1CCN(C(c2ccc(Cl)cc2)c2cccnc2)CC1` (stereo unspecified), 183 °C; that for `COc1cc(-c2nc(-c3ccc(N(C)C)cc3)c(C)[nH]2)ccc1OP(=O)(O)O`, 226 to 230 °C.
The same measure for `Cc1ccc(-n2nc(N3CCN(C(N)=O)CC3)c3ccccc32)cc1`: 146 to 148 °C; for `COC(=O)c1ccc(CC(C)NCC(O)c2ccc(O)c(CO)c2)cc1O` (stereo unspecified): 81 to 83 °C.
`COc1ccc(Oc2c(N)cc(C(=O)O)cc2S)cc1`: the melting point lay in the range of 182 to 184 °C.
The result for `COC(=O)c1ccccc1-c1cc(-c2ccc(OC)cc2)on1` reads 96.5 to 98 °C.
The result for `Cc1cc(C)c2ncc(NC(=O)C=Cc3ccc(O)cc3)c(-c3ccccc3Cl)c2c1` reads 228 to 230 °C; that for `Cc1ccc(C(=O)Nc2ccc(CN3CCN(C)CC3)c(C(F)(F)F)c2)cc1C#Cc1ccc(NC2CCC2)nn1`, 120 to 121 °C.
The compound `O=C1c2cccc(NCCc3ccc(O)cc3)c2C(=O)c2c(NCCc3ccc(O)cc3)cccc21` came in with a melting point of 181 to 182 °C.
In turn, `Cc1cccc(CN2CCC(c3cc(-c4ccc(Cl)cc4)[nH]n3)CC2)c1` came in with a melting point of 119 to 120 °C.
The result for `Cc1ccnc(-c2ccccc2)c1C(=O)O` reads 210 to 212 °C.
On to `C=CCOC(=O)c1ccc(N=Cc2ccc3c(c2Cl)C(C)(C)CCC3(C)C)cc1`, for which the melting point amounted to 80 °C.
Turning to `Fc1ccc(C(CCCN2CCN(c3n[nH]c4cc(Cl)ccc34)CC2)c2ccc(F)cc2)cc1`, the melting point was 202 to 204 °C.
Consider `COc1ccc(C2=C(c3ccc(O)cc3)CCCc3cc(OCc4ccccc4)ccc32)cc1`, for which the melting point was in the range of 173 to 175 °C.
The result for `COC1=C(OC)C(=O)C2=C(CCC(CCOc3cc(OC)c(OC)c(OC)c3)CC2)C1=O` reads 91 to 93 °C; that for `CCOC(=O)CCOc1cccc2c1CCC2=O`, 90 to 92 °C.
The result for `CC(C)(C)c1ccc(OC2CN(C(c3ccccc3)c3ccccc3)C2)cc1` reads 126 to 127 °C.
The result for `COc1cc(OC)nc(Sc2[nH]nc(C)c2[N+](=O)[O-])n1` reads 175 to 176 °C.
`COc1ccc2cccc3c2c1C(=O)N(O)C3=O` showed a melting point of 205 to 206 °C.
The result for `Cc1ccc2nc(-c3ccc(N)c(I)c3)sc2c1` reads 176 to 178 °C.
The result for `COc1cc(O)c2c(c1)OC(C(C)(C)C=C1N=C(c3ccccc3)OC1=O)CC2=O` (stereo unspecified) reads 147 to 149 °C.
For `CCCCCCCCCCCCCCCCCC(=O)c1cc(C(=O)O)ccc1O`, the melting point is 170 °C.
The result for `N#Cc1ccc(C2NC(=O)NC2=O)c(SCCc2ccccc2)c1` (stereo unspecified) reads 198 °C; that for `CCOC(=O)C1=C(C)Nc2nnnn2C1c1cccc([N+](=O)[O-])c1` (stereo unspecified), 210 to 212 °C.
In the case of `Cc1cccc(Nc2nc(N(C)C)ncc2S(=O)(=O)NC(=O)NC(C)C)c1`, the melting point fell in the range of 178 to 179 °C.
For `CS(=O)(=S)OCCCCCCCCCCOS(C)(=O)=S` (stereo unspecified), the melting point lay in the range of 45 to 52 °C.
On to `CCOC(=O)C(=O)Cc1c(OCc2ccccc2)cc(C)cc1[N+](=O)[O-]`, for which the melting point lay in the range of 80 to 82 °C.
The result for `CN(C)C(=O)c1nc2ccccc2n(Cc2ccccc2)c1=O` reads 154 to 155 °C; that for `CCOC(=O)c1cc(=O)c2c3c(ccc2o1)C(=O)CC(C(=O)OC)=N3`, 166 to 170 °C; that for `CC(C)c1cccc(COCCCn2ccnc2)c1NC(=O)CC1c2ccccc2Oc2ccccc21`, 131 to 132 °C.
The same measure for `CCOP(=O)(OCC)C(CCc1cc(C)nc2c(C#N)c(C)nn12)P(=O)(OCC)OCC`: 49 to 50 °C; for `CS(=O)(=O)Nc1cc(NS(C)(=O)=O)cc([N+](=O)[O-])c1`: 223 to 224 °C.
The same measure for `N#Cc1ccc2c(c1)C=C(C(=O)O)C(C(F)(F)F)N2` (stereo unspecified): 238 to 240 °C; for `COc1cc(Nc2nnc(Cc3ccncc3)c3ccccc23)cc(OC)c1OC`: 110 to 111 °C.
With `COc1ccc2c(c1)C1=C(SCC3(CCN(C(=O)c4cccc(Cl)c4)CC3)O1)C(=O)C2=O`, the melting point was 125 to 127 °C.

Source of the values: a melting point compilation (Tetko et al.; mined from patent text by program, amines drawn as free bases though some values may be those of a salt).
